Results: ChEMBL document CHEMBL5244253, “Recent research progress on natural small molecule bibenzyls and its derivatives in Dendrobium species” (Eur J Med Chem, 2020)

Legend:
Format in all cases: functional
[1] = test system: RAW264.7; experiment: Antiinflammatory activity in mouse RAW264.7 cells assessed as inhibition of H2O2-induced intracellular ROS production at 50 ug/ml measured after 24 hrs by DCFH-DA staining based fluorescence assay
[2] = test system: RAW264.7; experiment: Antiinflammatory activity in mouse RAW264.7 cells assessed as inhibition of LPS-induced TNFalpha secretion at 50 ug/ml measured after 24 hrs
[3] = test system: RAW264.7; experiment: Antiinflammatory activity in mouse RAW264.7 cells assessed as inhibition of LPS-induced NO production at 50 ug/ml measured after 24 hrs

## COc1cc(CC2c3cc(O)c(O)c(OC)c3Oc3cc(O)c4c(c32)CCc2cc(O)ccc2-4)ccc1O (stereo not drawn)
[1]
  inhibition at 50 µg/mL: 65%
[2]
  inhibition at 50 µg/mL: 70%
[3]
  inhibition at 50 µg/mL: 65%
